Where “and” joins values, the source holds several entries; their conditions need not be identical. Equal values may be shown once.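 How tested: cells in 96-well plates exposed to compound for 48 hours at five concentrations. Here, GI50 denotes the concentration required for 50% inhibition of growth. TGI marks complete inhibition of growth.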
Assays:
Assay in all cases: NCI anticancer screen, dose series, 48 h
A498 renal = tested on: A498 renal
MCF7 breast = tested on: MCF7 breast
BT-549 breast = tested on: BT-549 breast
DU-145 prostate = tested on: DU-145 prostate
UO-31 renal = tested on: UO-31 renal
OVCAR-3 ovarian = tested on: OVCAR-3 ovarian
HOP-92 NSCLC = tested on: HOP-92 NSCLC
MDA-MB-231 breast = tested on: MDA-MB-231 breast
M19-MEL melanoma = tested on: M19-MEL melanoma
HOP-18 NSCLC = tested on: HOP-18 NSCLC

| Structure (SMILES) | GI50 (A498 renal) | TGI (A498 renal) | GI50 (MCF7 breast) | TGI (MCF7 breast) | GI50 (BT-549 breast) | TGI (BT-549 breast) | GI50 (DU-145 prostate) | TGI (DU-145 prostate) | GI50 (UO-31 renal) | TGI (UO-31 renal) | GI50 (OVCAR-3 ovarian) | TGI (OVCAR-3 ovarian) | GI50 (HOP-92 NSCLC) | TGI (HOP-92 NSCLC) | GI50 (MDA-MB-231 breast) | TGI (MDA-MB-231 breast) | TGI (M19-MEL melanoma) [µM] | TGI (HOP-18 NSCLC) [µM] |
| --- | --- | --- | --- | --- | --- | --- | --- | --- | --- | --- | --- | --- | --- | --- | --- | --- | --- | --- |
| O=C(CCCCCNC1=CC(=O)c2ccccc2C1=O)NCCC[Te]c1ccccc1 | 0.302 µM | 1.66 µM | 0.327 µM | 4.66 µM | 0.297 µM | 0.916 µM | 0.43 µM | 1.9 µM | 0.311 µM | 1.3 µM | 0.676 µM | 2.22 µM | 0.583 µM | 1.65 µM | 0.236 µM | 0.606 µM |  |  |
| CCCCCCCCn1ccc2cc(NC(=O)Cn3cc(CN4CCC(C)CC4)nn3)ccc21 | 1.6 µM | 3.27 µM | 1.65 µM | 3.25 µM | 1.53 µM | 3.01 µM | 1.94 µM | 3.9 µM | 1.44 µM | 2.74 µM | 1.71 µM | 3.19 µM | 1.16 µM | 2.57 µM | 1.71 µM | 3.24 µM |  |  |
| O=c1c(-c2ccc3c(c2)OCO3)coc2c(CO)c(O)ccc12 | 1.76 µM | 3.95 µM | 2.72 µM | 25.4 µM | 1.47 µM | 3.41 µM | 2.41 µM | 7.06 µM | 2.89 µM | 12 µM | 2.07 µM | 4.26 µM | 2.02 µM | 4.86 µM | 2.01 µM | 5.09 µM |  |  |
| CC(C)(C)C1CCP(=O)(c2ccccc2)CC1 (stereo not given) |  | > 100 µM |  |  |  |  |  |  |  | > 100 µM |  | > 100 µM |  |  |  |  | > 100 | > 100 |
| O=C1c2ccccc2C(=O)c2c(NCCNCCO)ccc(NCCNCCO)c21 | 0.193 µM and 1.37 µM and 0.565 µM | 1.11 µM and 7 µM and 3.61 µM | 0.0479 µM and 0.0696 µM and 0.069 µM | 0.948 µM and 2.39 µM and 4.99 µM | 2.98 µM and 7.28 µM and 6.25 µM | 14.9 µM and 20.7 µM and 21.7 µM | 0.718 µM and 1.41 µM and 1.29 µM | 4.89 µM and 8.28 µM and 8.69 µM | 5.36 µM and 1.58 µM and 2.79 µM | 38.1 µM and 27.7 µM and 36.9 µM | 2.41 µM and 2.86 µM and 2.72 µM | 7.71 µM and 11.5 µM and 11 µM | 0.289 µM and 0.508 µM and 0.227 µM | 4.94 µM and 5.08 µM and 2.08 µM | 1.56 µM and 1.63 µM and 1.52 µM | 5.85 µM and 6.54 µM and 4.47 µM |  |  |
| O=C(O)c1ccccc1-c1ccccc1C(=O)Nc1ccc2c(c1)Cc1ccccc1-2 |  | 44 µM |  | > 100 µM |  | 69.4 µM |  | > 100 µM |  | > 100 µM |  | 69.9 µM |  | > 100 µM |  | > 100 µM |  |  |
| C=C1C(=O)O[C@H]2[C@H]1CC/C(COC(=O)c1cccc3ccccc13)=C\CC[C@@]1(C)O[C@@H]21 | 14.5 µM | 28.4 µM | 0.722 µM | 2.84 µM | 1.05 µM | 2.37 µM | 1.5 µM | 2.86 µM | 1.44 µM | 2.76 µM | 1.39 µM | 2.76 µM | 1.01 µM | 2.61 µM | 1.69 µM | 3.68 µM |  |  |
| Cc1ccc2nc3sc(=O)sc3nc2c1 |  | 20.2 µM |  | 31.4 µM |  | 28.7 µM |  | > 100 µM |  | 28.9 µM |  | 27.7 µM |  | 28.9 µM |  | 32.1 µM |  |  |
| CCCCCCCCCCCCNC(=O)[C@H]1CSC(c2cc(Br)cs2)N1 (stereo not given in full) | 7.38 µM | 14.1 µM | 2.16 µM | 8.82 µM | 0.894 µM | 1.78 µM | 1.11 µM | 2.5 µM | 0.979 µM | 2.42 µM | 1.15 µM | 2.38 µM | 4.61 µM | 11.5 µM | 0.83 µM | 1.61 µM |  |  |
| C[C@@H](Oc1cc(-c2cnn(C3CC4(CNC4)C3)c2)cnc1N)c1c(Cl)ccc(F)c1Cl | 1.1 µM | 4.81 µM | 0.532 µM | 5 µM | 6.49 µM | 19.4 µM | 5.45 µM | 18.1 µM | 4.96 µM | 18.3 µM | 9.94 µM | 22.1 µM | 0.848 µM | 5.12 µM | 2.23 µM | 14.4 µM |  |  |
| CC1=C(C(=O)Nc2cccc(C(F)(F)F)c2)C(c2ccccc2F)C(C(=O)Nc2cccc(C(F)(F)F)c2)=C(C)N1 |  | 24.3 µM |  |  |  |  |  |  |  | 17.3 µM |  | 17.8 µM |  | 9.11 µM |  |  | 21.3 |  |
| O=C(O)CN(CC(=O)O)c1ccccc1 |  | > 100 µM |  | > 100 µM |  | > 100 µM |  | > 100 µM |  | > 100 µM |  | > 100 µM |  | > 100 µM |  | > 100 µM |  |  |
| O=C1c2ccccc2-c2c1c1c(O)cccc1n2CCCc1ccccc1 | 17.3 µM | 43.2 µM | 48.4 µM | > 100 µM | 16 µM | 63.6 µM | 28.1 µM | > 100 µM | 7.66 µM | > 100 µM | 9.82 µM | > 100 µM | 45.3 µM | > 100 µM | 70 µM | > 100 µM |  |  |
| CN(C(=O)C12C3C4C1C1C2C3C41C(=O)N(C)C(C)(C)C)C(C)(C)C (stereo not given) |  | > 50 µM |  |  |  |  |  |  |  | > 50 µM |  | > 50 µM |  | > 50 µM |  |  | > 50 |  |
| O=[N+]([O-])c1ccc(N/N=C/c2ccccc2O)nc1 | 63.4 µM | > 100 µM | 0.928 µM | > 100 µM | 6.08 µM | > 100 µM | 1.35 µM | > 100 µM | 0.623 µM | > 100 µM | 0.368 µM | > 100 µM | 3.74 µM | > 100 µM | 1.46 µM | > 100 µM |  |  |
| O=S1c2ccccc2N=C(c2ccc3ccccc3c2)CC1c1ccccc1F (stereo not given) |  | 79.7 µM |  |  |  |  |  |  |  | > 100 µM |  | > 100 µM |  |  |  |  | > 100 | > 100 |
| COc1ccc(C2=NNC(c3cc(Cc4ccc(O)c(C5CC(c6ccc(OC)cc6)=NN5)c4)ccc3O)C2)cc1 (stereo not given) | 71.9 µM | > 100 µM | 3.3 µM | 15 µM | 4.66 µM | 51.6 µM | 29.8 µM | > 100 µM | 4.29 µM | > 100 µM | 18.8 µM | > 100 µM | 8.28 µM | > 100 µM | 14.3 µM | 83.1 µM |  |  |
| COc1cc(-c2ccccc2)c(OC)cc1CCl |  | > 100 µM |  |  |  |  |  |  |  | > 100 µM |  | > 100 µM |  |  |  |  | > 100 | > 100 |
| COc1ccccc1N(C(C)=O)C1=C(Cl)C(=O)c2ccccc2C1=O | 1.54 µM | 7.69 µM | 2.4 µM | 10.5 µM | 1.89 µM | 8.25 µM | 3.46 µM | 12 µM | 1.03 µM | 2.56 µM | 1.15 µM | 2.72 µM | 0.304 µM | 1.85 µM | 2.03 µM | 6.23 µM |  |  |

— PubChem BioAssay (NCI)
